US5462935A, “Cephalosporin compounds” (Lucky Limited, priority 1990, dated 1995)
≈ marks a conversion by molar mass, not a printed value.

How the values were obtained:
[1] = acute toxicity test, intravenous; conditions: mouse, in vivo, ICR mice, observed for 14 days
Text: The results are shown in the last row of Table 2.

[2] = test system: Salmonella typhimurium ATCC 14028; assay: minimal inhibitory concentration, two-fold agar dilution; type: cell-based; conditions: Salmonella enterica, Muller-Hinton agar, 37° C., 20 hours
Procedure: (§1) These NIC values were taken by employing a two-fold dilution method: that is, two-fold serial dilutions of each of the test compounds were made and dispersed in a Muller-Hinton agar medium; 2 μl of the standard test strain which had the 10^7 CFU (Colony Forming Unit) per ml was inoculated on the medium; and these were incubated at 37° C. for 20 hours.

[3] = test system: Shigella sonnei ATCC 11060; assay: as above; type: cell-based; conditions: ATCC11060, Muller-Hinton agar, 37° C., 20 hours
Procedure: as §1

[4] = test system: Morganella morganii ATCC 8076h; assay: as above; type: cell-based; conditions: ATCC8076H, 20 h
Procedure: as §1

[5] = test system: Enterobacter cloacae ATCC 27508; assay: as above; type: cell-based; conditions: ATCC27508, Muller-Hinton agar, 37° C., 20 hours
Procedure: as §1

ATCC 12228 = assay: as above; type: cell-based; conditions: Staphylococcus faecalis, ATCC12228, 20 h
Procedure: as §1

[6] = test system: Acinetobacter calcoaceticus ATCC 15473; assay: as above; type: cell-based; conditions: ATCC15473, Muller-Hinton agar, 37° C., 20 hours
Procedure: as §1

[7] = test system: Escherichia coli ATCC 10536; assay: as above; type: cell-based; conditions: ATCC10536, Muller-Hinton agar, 37° C., 20 hours
Procedure: as §1

[8] = test system: Serratia marcescens ATCC 27117; assay: as above; type: cell-based; conditions: ATCC27117, Muller-Hinton agar, 37° C., 20 hours
Procedure: as §1

[9] = test system: Pseudomonas aeruginosa ATCC 25619; assay: as above; type: cell-based; conditions: ATCC25619, Muller-Hinton agar, 37° C., 20 hours
Procedure: as §1

[10] = test system: Citrobacter freundii ATCC 8090; assay: as above; type: cell-based; conditions: ATCC8090, Muller-Hinton agar, 37° C., 20 hours
Procedure: as §1

[11] = test system: Pseudomonas aerugionsa ATCC 10145; assay: as above; type: cell-based; conditions: ATCC10145, Muller-Hinton agar, 37° C., 20 hours
Procedure: as §1

[12] = test system: Proteus mirabilis ATCC 25933; assay: as above; type: cell-based; conditions: ATCC25933, Muller-Hinton agar, 37° C., 20 hours
Procedure: as §1

[13] = test system: Staphylococcus epidermidis ATCC 10537; assay: as above; type: cell-based; conditions: ATCC10537, Muller-Hinton agar, 37° C., 20 hours
Procedure: as §1

[14] = test system: Klebsiella pneumoniae ATCC 10031; assay: as above; type: cell-based; conditions: ATCC10031, Muller-Hinton agar, 37° C., 20 hours
Procedure: as §1

[15] = test system: Enterobacter aerogenes ATCC 29751; assay: as above; type: cell-based; conditions: Klebsiella aerogenes, ATCC29751, 20 h
Procedure: as §1

[16] = test system: Providencia rettgeri ATCC 9250; assay: as above; type: cell-based; conditions: ATCC9250, Muller-Hinton agar, 37° C., 20 hours
Procedure: as §1

[17] = test system: Escherichia coli ATCC 25922; assay: as above; type: cell-based; conditions: ATCC25922, Muller-Hinton agar, 37° C., 20 hours
Procedure: as §1

[18] = test system: Staphylococcus aureus ATCC 6638p; assay: as above; type: cell-based; conditions: ATCC6638P, 20 h
Procedure: as §1

[19] = test system: Micrococcus luteus ATCC 9341; assay: as above; type: cell-based; conditions: ATCC9341, Muller-Hinton agar, 37° C., 20 hours
Procedure: as §1

[20] = test system: Bacillus cereus ATCC 11778; assay: as above; type: cell-based; conditions: Bacillus cereus, ATCC11778, 20 h
Procedure: as §1

[21] = test system: Streptococcus faecalis ATCC 29212; assay: as above; type: cell-based; conditions: Enterococcus faecalis, ATCC29212, Muller-Hinton agar, 37° C., 20 hours
Procedure: as §1

[22] = test system: Bacillus megaterium ATCC 9885; assay: as above; type: cell-based; conditions: Priestia megaterium, ATCC9885, 20 h
Procedure: as §1

[23] = test system: Proteus vulgaris ATCC 6059; assay: as above; type: cell-based; conditions: ATCC6059, Muller-Hinton agar, 37° C., 20 hours
Procedure: as §1

[24] = test system: Shigella flexneri ATCC 11836; assay: as above; type: cell-based; conditions: ATCC11836, Muller-Hinton agar, 37° C., 20 hours
Procedure: as §1

[25] = test system: Pseudomonas aerugionsa ATCC 27853; assay: as above; type: cell-based; conditions: ATCC27853, Muller-Hinton agar, 37° C., 20 hours
Procedure: as §1

Structure (SMILES) | LD50 at 336 h [1] [mg/kg] | MIC [2] [µg/mL] | MIC [3] [µg/mL] | MIC [4] [µg/mL] | MIC [5] [µg/mL] | MIC (ATCC 12228) [µg/mL] | MIC [6] [µg/mL] | MIC [7] [µg/mL] | MIC [8] [µg/mL] | MIC [9] [µg/mL] | MIC [10] [µg/mL] | MIC [11] [µg/mL] | MIC [12] [µg/mL] | MIC [13] [µg/mL] | MIC [14] [µg/mL] | MIC [15] [µg/mL] | MIC [16] [µg/mL] | MIC [17] [µg/mL] | MIC [18] [µg/mL] | MIC [19] [µg/mL] | also measured
CCC[n+]1c(N)cc(N)nc1SCC1=C(C(=O)[O-])N2C(=O)C(NC(=O)/C(=N\O[C@H](C)C(=O)O)c3csc(N)n3)[C@H]2SC1 (stereo partly drawn) [I-R-4, 7-[(Z)-2-(2-aminothiazol-4-yl)-2-[(R)-1-carboxyeth-1-oxyimino]acetamido]-3-[(4,6-diamino-1-propylpyrimidinium-2-yl)thiomethyl]-3-cephem-4-carboxylate] | > 3000 | 0.25 (≈ 0.392 µM) | 0.063 (≈ 0.0988 µM) | ≤ 0.008 | 0.016 (≈ 0.0251 µM) | 1 (≈ 1.57 µM) | 8 (≈ 12.5 µM) | 0.063 (≈ 0.0988 µM) | 0.13 (≈ 0.204 µM) | 1 (≈ 1.57 µM) | 0.063 (≈ 0.0988 µM) | 4 (≈ 6.27 µM) | 0.063 (≈ 0.0988 µM) | 2 (≈ 3.14 µM) | 0.063 (≈ 0.0988 µM) | 1 (≈ 1.57 µM) | ≤ 0.008 | 0.063 (≈ 0.0988 µM) | 2 (≈ 3.14 µM) | 0.5 (≈ 0.784 µM) | MIC [20]: 64 µg/mL (≈ 100 µM); MIC [21]: > 128 µg/mL; MIC [22]: 0.5 µg/mL (≈ 0.784 µM); MIC [23]: 0.063 µg/mL (≈ 0.0988 µM); MIC [24]: 0.031 µg/mL (≈ 0.0486 µM); MIC [25]: 2 µg/mL (≈ 3.14 µM)
C[C@@H](O/N=C(\C(=O)NC1C(=O)N2C(C(=O)[O-])=C(CSc3nc(N)cc(N)[n+]3-c3ccccc3)CSC12)c1csc(N)n1)C(=O)O (stereo partly drawn) [I-R-5, 7-[(Z)-2-(2-aminothiazol-4-yl)-2-[(R)-1-carboxyeth-1-oxyimino]acetamido]-3-[(4,6-diamino-1'-phenylpyrimidinium-2-yl)thiomethyl]-3-cephem-4-carboxylate] | > 2000 | 0.5 (≈ 0.744 µM) | 0.25 (≈ 0.372 µM) | ≤ 0.008 | 0.031 (≈ 0.0461 µM) | 2 (≈ 2.98 µM) | 16 (≈ 23.8 µM) | 0.13 (≈ 0.194 µM) | 0.5 (≈ 0.744 µM) | 2 (≈ 2.98 µM) | 0.13 (≈ 0.194 µM) | 8 (≈ 11.9 µM) | 0.063 (≈ 0.0938 µM) | 2 (≈ 2.98 µM) | 0.063 (≈ 0.0938 µM) | 1 (≈ 1.49 µM) | ≤ 0.008 | 0.25 (≈ 0.372 µM) | 4 (≈ 5.95 µM) | 0.25 (≈ 0.372 µM) | MIC [20]: 64 µg/mL (≈ 95.3 µM); MIC [21]: > 128 µg/mL; MIC [22]: 0.5 µg/mL (≈ 0.744 µM); MIC [23]: 0.063 µg/mL (≈ 0.0938 µM); MIC [24]: 0.063 µg/mL (≈ 0.0938 µM); MIC [25]: 4 µg/mL (≈ 5.95 µM)
Cc1c(N)nc(SCC2=C(C(=O)[O-])N3C(=O)C(NC(=O)/C(=N\O[C@H](C)C(=O)O)c4csc(N)n4)[C@H]3SC2)[n+](N)c1N (stereo partly drawn) [I-R-7, 7-[(Z)-2-(2-aminothiazol-4-yl)-2-[(R)-1-carboxyeth-1-oxyimino]acetamido]-3-[(5-methyl-1,4,6-triaminopyrimidinium-2-yl)thiomethyl]-3-cephem-4-carboxylate] | > 5000 | 0.25 (≈ 0.4 µM) | 0.063 (≈ 0.101 µM) | ≤ 0.008 | 0.063 (≈ 0.101 µM) | 2 (≈ 3.2 µM) | 4 (≈ 6.4 µM) | 0.063 (≈ 0.101 µM) | 0.13 (≈ 0.208 µM) | 2 (≈ 3.2 µM) | 0.13 (≈ 0.208 µM) | 2 (≈ 3.2 µM) | 0.031 (≈ 0.0496 µM) | 2 (≈ 3.2 µM) | 0.063 (≈ 0.101 µM) | 2 (≈ 3.2 µM) | ≤ 0.008 | 0.063 (≈ 0.101 µM) | 4 (≈ 6.4 µM) | 0.5 (≈ 0.8 µM) | MIC [20]: 128 µg/mL (≈ 205 µM); MIC [21]: > 128 µg/mL; MIC [22]: 0.5 µg/mL (≈ 0.8 µM); MIC [23]: 0.063 µg/mL (≈ 0.101 µM); MIC [24]: 0.031 µg/mL (≈ 0.0496 µM); MIC [25]: 2 µg/mL (≈ 3.2 µM)
